Reference: the supplement of paper PMC13380429

Tests used:
[1] = test system: A549-ACE2 infected with SARS-CoV-2; assay: SARS-CoV-2 infection rate relative to DMSO; higher = more infection; conditions: 24 h
[2] = test system: A549-ACE2 infected with SARS-CoV-2; assay: cell count relative to DMSO; higher = less toxic; conditions: 24 h
U2OS [3] = assay: relative viability EC50 (midpoint between 100% and the lowest measured viability); higher = less toxic; conditions: 72 h
HepG2 [4] = assay: as above; conditions: 72 h
Calu-3 [5] = assay: as above; conditions: 72 h
Vero E6 [6] = assay: as above; conditions: 72 h
Caco-2 [7] = assay: as above; conditions: 72 h
A549-ACE2 [8] = assay: drug-induced phospholipidosis relative to tamoxifen; higher = more phospholipidosis
[9] = test system: A549-ACE2 infected with SARS-CoV-2; assay: morphology score (similarity to uninfected cells); higher = more like uninfected cells; conditions: 24 h
A549-ACE2 [10] = assay: phospholipidosis EC50; higher = less potent phospholipidosis inducer
U2OS [11] = assay: cell viability relative to DMSO; higher = less toxic; conditions: 72 h
HepG2 [12] = assay: as above; conditions: 72 h
Calu-3 [13] = assay: as above; conditions: 72 h
Vero E6 [14] = assay: as above; conditions: 72 h
Caco-2 [15] = assay: as above; conditions: 72 h
U2OS [16] = assay: drug sensitivity score (DSS) for viability; higher = more toxic; extreme values may be limits of the assay; conditions: 72 h
HepG2 [17] = assay: as above; conditions: 72 h
Calu-3 [18] = assay: as above; conditions: 72 h
Vero E6 [19] = assay: as above; conditions: 72 h
Caco-2 [20] = assay: as above; conditions: 72 h

CNCCCCOc1ccccc1Cc1ccccc1 [bifemelane]
Conditions	SARS-CoV-2 infection rate [%]	cell count [%]	cell viability [%]	morphology score	phospholipidosis EC50 [µM]
A549-ACE2 [10], 24 h	–	–	–	–	5.4
A549-ACE2 [10], 48 h	–	–	–	–	5.1
A549-ACE2 [10], 72 h	–	–	–	–	6.67
Caco-2 [15], 1 nM	–	–	100	–	–
Caco-2 [15], 10 nM	–	–	101	–	–
Caco-2 [15], 100 nM	–	–	91.5	–	–
Caco-2 [15], 1000 nM	–	–	102	–	–
Caco-2 [15], 10000 nM	–	–	89.3	–	–
Calu-3 [13], 1 nM	–	–	112	–	–
Calu-3 [13], 10 nM	–	–	104	–	–
Calu-3 [13], 100 nM	–	–	95.8	–	–
Calu-3 [13], 1000 nM	–	–	90.1	–	–
Calu-3 [13], 10000 nM	–	–	104	–	–
HepG2 [12], 1 nM	–	–	98.7	–	–
HepG2 [12], 10 nM	–	–	101	–	–
HepG2 [12], 100 nM	–	–	89.5	–	–
HepG2 [12], 1000 nM	–	–	92.7	–	–
HepG2 [12], 10000 nM	–	–	85	–	–
U2OS [11], 1 nM	–	–	96.6	–	–
U2OS [11], 10 nM	–	–	91.1	–	–
U2OS [11], 100 nM	–	–	102	–	–
U2OS [11], 1000 nM	–	–	96.5	–	–
U2OS [11], 10000 nM	–	–	92.6	–	–
Vero E6 [14], 1 nM	–	–	109	–	–
Vero E6 [14], 10 nM	–	–	102	–	–
Vero E6 [14], 100 nM	–	–	96.8	–	–
Vero E6 [14], 1000 nM	–	–	100	–	–
Vero E6 [14], 10000 nM	–	–	89.5	–	–
[1], 0.3 µM	101	–	–	–	–
[1], 3 µM	96	–	–	–	–
[1], 10 µM	43	–	–	–	–
[1], 30 µM	16	–	–	–	–
[2], 0.3 µM	–	100	–	–	–
[2], 3 µM	–	106	–	–	–
[2], 10 µM	–	115	–	–	–
[2], 30 µM	–	110	–	–	–
[9], 0.3 µM	–	–	–	-0.03	–
[9], 3 µM	–	–	–	0.43	–
[9], 10 µM	–	–	–	0.7	–
[9], 30 µM	–	–	–	0.69	–

Conditions	drug sensitivity score	relative viability EC50 [µM]
Caco-2 [7]	–	> 10
Caco-2 [20]	0	–
Calu-3 [5]	–	> 10
Calu-3 [18]	0	–
HepG2 [4]	–	> 10
HepG2 [17]	0.6	–
U2OS [3]	–	> 10
U2OS [16]	0	–
Vero E6 [6]	–	> 10
Vero E6 [19]	0	–

drug-induced phospholipidosis [%], A549-ACE2 [8]
Conditions	0.3 µM	0.833333 µM	3.33333 µM	6.66667 µM	10 µM	30 µM
24 h	0.28	1.11	22.9	61.8	79.9	96.4
48 h	-0.08	-3.86	22.6	74.8	87.4	108
72 h	3.27	-0.257	16.8	61.6	86.2	116

NS(=O)(=O)C#Cc1ccccc1 [pifithrin-mu]
Conditions	SARS-CoV-2 infection rate, [1] [%]	cell count, [2] [%]	cell viability, Caco-2 [15] [%]	cell viability, Calu-3 [13] [%]	cell viability, HepG2 [12] [%]	cell viability, U2OS [11] [%]	cell viability, Vero E6 [14] [%]	morphology score, [9]
1 nM	–	–	97.2	107	104	99.8	100	–
10 nM	–	–	100	99	89.3	97.5	95.5	–
0.1 µM	104	98	–	–	–	–	–	-0.1
100 nM	–	–	102	98.4	91.1	97.2	94.4	–
0.3 µM	106	98	–	–	–	–	–	-0.19
1 µM	90	101	–	–	–	–	–	0.29
1000 nM	–	–	92.4	111	104	95.7	98.4	–
3 µM	101	99	–	–	–	–	–	-0.06
10000 nM	–	–	37.8	89.7	54.3	20	77.9	–

Conditions	drug sensitivity score	relative viability EC50 [µM]
Caco-2 [7]	–	2.17
Caco-2 [20]	4.7	–
Calu-3 [5]	–	> 10
Calu-3 [18]	0	–
HepG2 [17]	2	–
U2OS [3]	–	2.75
U2OS [16]	5	–
Vero E6 [6]	–	> 10
Vero E6 [19]	1	–

drug-induced phospholipidosis [%], A549-ACE2 [8]
Conditions	0.3 µM	0.833333 µM	3.33333 µM	6.66667 µM	10 µM	30 µM
24 h	2.1	0.49	1.97	5.31	12.1	-1.3
48 h	2.3	-0.12	0.23	3.31	7.4	–
72 h	3.99	-0.0686	0.345	0.553	1.82	–
